Usually Ki stands for a measure of affinity in units of concentration, obtained from inhibition or displacement.

Results on two compounds are retold here after BindingDB's records for doi:10.1038/sj.bjp.0701860 (Universit&Aagrove, 1998).

The structures appear in SMILES notation.

The test deals with Melatonin receptor type 1A (Homo sapiens, UniProt P48039).
Sequence of Melatonin receptor type 1A (P48039 whole entry): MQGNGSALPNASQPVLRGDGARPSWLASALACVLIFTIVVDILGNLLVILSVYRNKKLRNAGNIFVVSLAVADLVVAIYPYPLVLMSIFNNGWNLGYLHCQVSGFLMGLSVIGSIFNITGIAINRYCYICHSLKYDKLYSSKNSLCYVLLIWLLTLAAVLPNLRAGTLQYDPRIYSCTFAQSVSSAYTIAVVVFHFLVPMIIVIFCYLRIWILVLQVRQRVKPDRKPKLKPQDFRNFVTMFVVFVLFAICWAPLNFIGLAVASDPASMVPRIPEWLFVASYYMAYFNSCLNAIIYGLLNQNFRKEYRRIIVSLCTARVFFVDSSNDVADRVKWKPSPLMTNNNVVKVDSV

In the case of `COc1ccc2[nH]c(-c3ccccc3)c(CCNC(C)=O)c2c1` [Melatonin,2-Phenyl], the Ki amounted to 0.02 nM.
With `CC(=O)n1cc(CCN)c2cc(O)ccc21` [NSC_260803] the figure was 484 nM.
